What follows are compounds tested on NQO1 specific enzyme activity in BEAS-2B cells (marker for NRF2 activation) (assay: Beas2B NQO1 MTT Assay). Details: Homo sapiens, NQO1 specific activity induction, 48 hours with compound.
Format: cell-based
Excerpt: NAD(P)H:quinone oxidoreductase 1 (NQO1), also called DT diaphorase, is a homodimeric FAD-containing enzyme that catalyses obligatory NAD(P)H-dependent two-electron reductions of quinones and protects cells against the toxic and neoplastic effects of free radicals and reactive oxygen species arising from one-electron reductions. The transcription of NQO1 is finely regulated by NRF2, and thus NQO1 activity is a good marker for NRF2 activation. On day one, frozen BEAS-2B cells (ATCC) were thawed in a water bath, counted, and re-suspended at a concentration of 250,000 cells/mL. Fifty microliters of cells were plated in 384 well black clear-bottomed plates. Plates were incubated at 37° C., 5% CO2 overnight. On day two, plates were centrifuged and 50 nL of compound or controls were added to the cells. Plates were then incubated at 37° C., 5% CO2 for 48 hours. On day four, medium was aspirated from the plate and crude cell lysates were made by adding 13 uL of 1× Cell Signaling Technologies lysis buffer with 1 Complete, Mini, EDTA-free Protease Inhibitor Tablet (Roche) for each 10 mL of lysis buffer. After lysis plates were incubated for 20 minutes at room temperature. Two microliters of lysate were removed for use in Cell Titer Glo assay (Promega) and MTT cocktail was prepared (Prochaska et. al. 1998) for measurement of NQO1 activity. Fifty microliters of MTT cocktail was added to each well, plate was centrifuged, and analysed on an Envision plate reader (Perkin Elmer) using Absorbance 570 nm label for 30 minutes. Product formation was measured kinetically and the pEC50 of NQO1 specific activity induction was calculated by plotting the change in absorbance (Delta OD/min) versus the log of compound concentration followed by 3-parameter fitting.
EC50s <1 nM (+++++), EC50s 10 nM-1 nM (++++), EC50s 10-100 nM (+++), EC50s 100 nM-1 μM (++), EC50s 1-10 μM (+), EC50s >10 μM (−), or were not determined (ND).
With `C[C@H]1Cc2ccc(C(F)(F)F)cc2S(=O)(=O)N(Cc2cccc(-n3ccc(C(=O)O)c3[C@@H]3C[C@H]3c3cn(C)nn3)c2)C1` [Example 4, 1-(3-(((S)-4-methyl-1,1-dioxido-8-(trifluoromethyl)-4,5-dihydrobenzo[f][1,2]thiazepin-2(3H)-yl)methyl)phenyl)-2-((1R,2R)-2-(1-methyl-1H-1,2,3-triazol-4-yl)cyclopropyl)-1H-pyrrole-3-carboxylic acid] the EC50 was 1 to 10 nM.
Compound `CCC[C@@H]1CCCCN1C(=O)c1cccc(-c2cccc(-n3ccc(C(=O)O)c3[C@@H]3C[C@H]3c3cn(C)nn3)c2)c1F` [Example 16, 1-(2′-fluoro-3′-((R)-2-propylpiperidine-1-carbonyl)-[1,1′-biphenyl]-3-yl)-2-((1R,2R)-2-(1-methyl-1H-1,2,3-triazol-4-yl)cyclopropyl)-1H-pyrrole-3-carboxylic acid] has an EC50 of 1 to 10 nM.
For `C[C@H](Oc1cccc(-c2cccc(-n3ccc(C(=O)O)c3[C@@H]3C[C@H]3c3cn(C)nn3)c2)c1)C1CCCCC1` [Example 18, 1-(3′-((S)-1-cyclohexylethoxy)-[1,1′-biphenyl]-3-yl)-2-((1R,2R)-2-(1-methyl-1H-1,2,3-triazol-4-yl)cyclopropyl)-1H-pyrrole-3-carboxylic acid], the EC50 was 10 to 100 nM.

Source: patent US20200031820A1, “3-CARBOXYLIC ACID PYRROLES AS NRF2 REGULATORS” (GLSXOSMITHKLINE INTELLECTUAL PROPERTY DEVELOPMENT LIMITED, priority 2016, published 2020)
